Test results from patent US12214076B2, “Drug delivery vehicles for atherosclerosis nanomedicine” (Northwestern University, priority 2019, dated 2025).
Peptide text beside a SMILES is read from it. * marks the point of attachment. Palmitoyl = CCCCCCCCCCCCCCCC(=O)*

How the values were obtained:
J774.2 macrophage = experiment: Cytocompatibility, MUSE Count and Viability Assay (Example 2); assay type: cell-based, mouse; settings: 24 hours of treatment, 32 μM Ac2-26
Protocol: Macrophage culture and characterization: J774.2 murine macrophages (Sigma-Aldrich) were expanded at 4-9×10^5 cells/mL in growth media consisting of Dulbecco's Modified Eagle's Medium (Sigma-Aldrich) containing 4.5 g/L glucose, 2 mM L-glutamine, 10% v/v FBS, 100 U/m penicillin, and 100 μg/mL streptomycin. Cells were passaged using Accutase™ (StemCell Technologies) and used at passage 6-9 for all experiments. The cells were detached with Accutase™ and gentle scraping, counted, and re-suspended in flow cytometry buffer containing 2% w/v bovine serum albumin (BSA, heat shock fraction free of proteases, globulin, and fatty acids, Sigma-Aldrich) and 0.1% w/v sodium azide (Sigma-Aldrich). To minimize non-specific binding of immunoglobin to Fc receptors, macrophages were incubated with anti-mouse CD16/32 antibody (TrueStain FcX™, Biolegend) at 1 μg/1×10^5 cells for 10 minutes at 4° C. […] All samples were analyzed using Attune NxT Acoustic Focusing Cytometer (Thermo Fisher) with at least 2000 events counted per condition.
Cytocompatibility: Macrophages were seeded at 2.1×10^5 cells/cm^2 on 24 well plates and treated with 32 μM of Ac2-26 or 320 μM PA co-assemblies (final Ac2-26 concentration of 32 μM) for 24 hours. […] Cells were detached by Accutase treatment for 20 minutes and counted using a MUSE® Count and Viability Assay Kit and cytometer (Emd millipore).

[1] = Treatment study serum chemistry (toxicology analysis); assay type: in vivo, mouse; settings: mouse, in vivo
Protocol: Blood samples were collected at the end of the treatment study for toxicology analysis. Mice were euthanized three days after their 16th treatment.
Tissue processing and imaging: Mice were sacrificed and euthanized under inhaled isoflurane anesthesia by diaphragm disruption and exsanguination. Phlebotomy was performed through direct right ventricular cardiac puncture using a 1 mL syringe and 25 G needle. Perfusion was performed through left ventricular cardiac puncture with 10 mL PBS and 10 mL 10% sucrose solution. The lungs, liver, spleen, kidney, aortic root, aortic arch, and descending aorta were harvested and stored in 10% sucrose for 20 minutes. Organs and vessels were then flash-frozen in Optimal Cutting Temperature embedding medium 4583 (Tissue-Tek®) with liquid nitrogen. Frozen specimens were stored at −80° C. and cryosectioned at […]. Confocal microscopy was performed on a Nikon AIR microscope. Two sets of images were acquired with a 10× Plan Fluor NA 0.3 objective. PAs were identified through quantification of the Alexa Fluor® 546 conjugated dye with 561 nm excitation and a 600/50 nm emission filter.
Statistics: The effect of treatments and sex on atherosclerosis progression in mice was analyzed using one- or two-factor analysis of variance (ANOVA) followed by a post-hoc student's t-test. The toxicological effects of treatments were also analyzed using two-factor ANOVA and a post-hoc student's t-test. Toxicological effects of treatments on liver proteins AST, ALT, and ALP were further analyzed using ordinal logistic regression models of likelihood ratio tests, followed by a post-hoc Wald test

[2] = tested on: atherosclerotic LDLR KO mice; experiment: In vivo proof of concept: PA nanofiber localization in aortic root; parameters: species or system mouse; settings: 24 h after intravenous injection, high fat diet 14 weeks, 6 mg kg-1 PA
Protocol: Mouse Model of Atherosclerosis and In Vivo Proof of Concept: LDLR-KO mice were fed a high fat “Western” diet (Teklad TD.88137) starting at 4 weeks of age. This diet consisted of 20% fat, 0.2% cholesterol, and 34% high sucrose. LDLR-KO mice fed this diet typically develop severe hypercholesterolemia (>800 mg/dL) and hypertriglyceridemia (>300 mg/dL) after only 2 weeks, and by 12 weeks on the high fat diet, atherosclerotic lesions are detected in the aortic root and aortic arch. After 14 weeks on the high fat diet, mice received intravenous injections of PA nanofibers dissolved in PBS (dorsal penile vein in males) under sterile conditions. Mice were briefly anesthetized for injection with inhaled isoflurane. After injection, mice were monitored and allowed to recover from anesthesia in a heated oxygen chamber. […] PA fluorescence was assessed with the HE CY3 filter (Zeiss filter #43) using excitation and emission wavelengths of 550-575 nm and 605-670 nm, respectively. Nuclear staining was performed with DAPI (4′,6-Diamidino-2-Phenylindole, Dilactate, ThermoFisher, Chicago, IL), and assessed with the DAPI filter (Zeiss filter #49) using excitation and emission wavelengths of 365-395 and 445-450 nm, respectively. Tissue autofluorescence was assessed with the green fluorescent protein filter (Zeiss filter #38) using excitation and emission wavelengths of 470-495 and 525-550 nm, respectively. […]

10% MMP-Ac2-26 PA: co-assembly of 10 mol % MMP-Ac2-26 PA, 50 mol % E2 filler PA, and 40% ApoA1 PA (VVAAEEGGGPQGIWGQGKAMVSEFLKQAWFIENEEQEYVQTVK)
J774.2 macrophage viability (J774.2 macrophage): No significant differences

CCCCCCCCCCCCCCCC(=O)N[C@H](C(=O)N[C@H](C(=O)N[C@@H](C)C(=O)N[C@@H](C)C(=O)N[C@@H](CCC(=O)O)C(=O)N[C@@H](CCC(=O)O)C(=O)NCC(=O)N[C@@H](CC(=O)O)C(=O)N[C@@H](Cc1c[nH]c2ccccc12)C(=O)N[C@@H](Cc1ccccc1)C(=O)N[C@@H](CCCCN)C(=O)N[C@@H](C)C(=O)N[C@@H](Cc1ccccc1)C(=O)N[C@@H](Cc1ccc(O)cc1)C(=O)N[C@@H](CC(=O)O)C(=O)N[C@@H](CCCCN)C(=O)N[C@H](C(=O)N[C@@H](C)C(=O)N[C@@H](CCC(=O)O)C(=O)N[C@@H](CCCCN)C(=O)N[C@@H](Cc1ccccc1)C(=O)N[C@@H](CCCCN)C(=O)N[C@@H](CCC(=O)O)C(=O)N[C@@H](C)C(=O)N[C@@H](Cc1ccccc1)C(N)=O)C(C)C)C(C)C)C(C)C [ApoA1 PA] (Palmitoyl-VVAAEEGDWFKAFYDKVAEKFKEAF-NH2)
Creatine [1]: 0 U/L | aspartate aminotransferase (AST) in the blood in comparison to PBS [1]: Neither ApoA1-LXR PAs nor ApoA1 PAs increased AST levels | localization of nanofibers to areas of atherosclerotic plaque in the aortic root [2]: localization of the nanofibers to areas of atherosclerotic plaque
